PMC9841519, “Corrole Nanoparticles for Chemotherapy of Castration-Resistant Prostate Cancer and as Sonodynamic Agents for Pancreatic Cancer Treatment” (Journal of Medicinal Chemistry, 2022)

What was measured:
[1] = test system: SK-MEL-28; assay: MTT assay, antitumor activity (Figure 1 table); settings: for IC50: read-out: IC50 (μM) SK-MEL-28
Experimental: (§1) Cell death was evaluated using a colorimetric [3-(4,5-dimethyl-thiazol-2-yl)-2,5-diphenyl-tetrazolium bromide] (MTT) assay. […] Cells intended for US exposure were plated separately. […] After this incubation period, purple formazan salt crystals were formed by a NADP/NADPH-dependent process, in metabolically active cells. […] The absorption of MTT was determined in a Tecan Sunrise Elisa-Reader (Switzerland) at 570/650 nm after automatic subtraction of background readings.

[2] = test system: DU-145; assay: MTT assay, antitumor activity (Figure 1 table); settings: for IC50: read-out: IC50 (μM) DU-145
Experimental: as §1

[3] = test system: MDA-MB-231; assay: MTT assay, antitumor activity (Figure 1 table); settings: for IC50: read-out: IC50 (μM) MDA-MB-231
Experimental: as §1

[4] = test system: OVCAR-3; assay: MTT assay, antitumor activity (Figure 1 table)
Experimental: as §1

[5] = test system: Salmonella strain TA98; assay: Ames mutagenicity test
Description: (§2) Briefly, the Ames test uses 5 bacterial strains (Salmonella and E. coli) that are exposed to a given compound with and without an enzymatic bioactivation system derived from rodent liver (S9). Each bacterial strain has a different loss of function mutation in a gene essential for the biosynthesis of a required amino acid, histidine in Salmonella or tryptophan in E. coli, such that they cannot grow and form colonies on agar plates lacking these amino acids.

[6] = test system: several human cancer cell lines; assay: Screening of corrole derivatives and their NPs on several cancer cell lines; type: cell-based; settings: not consistent upon repeated experiments for 2-Au
Experimental: Multiple corrole derivatives and their NPs were tested on several cancer cell lines. These include several metal chelated derivatives of 5,10,15-tris(pentafluorophenyl)corrole (2-H3) (Figure 1A); β-substituted (iodinated and brominated) corroles and several of its metal chelates (only 4-Au data are shown); different meso substituted corroles and their metal chelates (e.g., 5,15-di(pentafluorophenyl)-10-(imidazolyl)-corrole gallium(III), not presented); and the new synthetically available compound 5,10,15-tris(trifluoromethyl)corrole with different chelated metals (only the gallium(III) chelate 3-Ga is presented in Figure 1A). […] The best candidates from the high molecular weight list of corrole derivatives were the gold complexes 2-Au and 4-Au. […] Though there was an apparent effect on the cell cycle progression of the treated cells, there was no apparent cell death outcome accompanying the cell cycle arrest. Furthermore, the cell population within the culture wells appeared to be dividing freely and completely covering the wells’ surface (data not shown).

[7] = test system: Salmonella strain TA100; assay: Ames mutagenicity test; settings: S9: Yes
Description: as §2

Row | Structure (SMILES) | IC50 [1] | IC50 [2] | IC50 [3] | further results
1 | Fc1c(F)c(F)c(C2=C3C=CC(=N3)C(c3c(F)c(F)c(F)c(F)c3F)=c3ccc4[n]3[Au]3[n]5c2ccc5-c2ccc([n]23)C=4c2c(F)c(F)c(F)c(F)c2F)c(F)c1F [2-Au] | 0.006 to 5 µM | 0.005 to 4 µM | 0.01 to 1 µM | 
2 | Fc1c(F)c(F)c(-c2c3nc(c(-c4c(F)c(F)c(F)c(F)c4F)c4ccc([nH]4)c4ccc([nH]4)c(-c4c(F)c(F)c(F)c(F)c4F)c4ccc2[nH]4)C=C3)c(F)c1F [2-H3, 5,10,15-tris(pentafluorophenyl)corrole] |  |  |  | IC50 (μM) OVCAR-3 [4]: ambiguous; IC50 (μM) SK-MEL-28 [1]: ambiguous; IC50 (μM) DU-145 [2]: ambiguous; IC50 (μM) MDA-MB-231 [3]: ambiguous
3 | Fc1c(F)c(F)c(C2=C3C=CC(=N3)C(c3c(F)c(F)c(F)c(F)c3F)=c3ccc4[n]3[Mn]3[n]5c2ccc5-c2ccc([n]23)C=4c2c(F)c(F)c(F)c(F)c2F)c(F)c1F [2-Mn] | 5 µM | 10 µM | 4 µM | 
4 | O=[N+]([O-])c1ccc2c(c1)Cc1ccccc1-2 [2-nitrofluorine] |  |  |  | AMES Result (Positive/Negative) ([5]; S9: No): Positive
5 | Fc1c(F)c(F)c(C2=C3C=CC(=N3)C(c3c(F)c(F)c(F)c(F)c3F)=c3ccc4[n]3[Au]3[n]5c2c(I)c(I)c5-c2c(I)c(I)c([n]23)C=4c2c(F)c(F)c(F)c(F)c2F)c(F)c1F [4-Au] | 1 to 10 µM | 0.07 to 1 µM | 1 to 10 µM | IC50 ([4]; read-out: IC50 (μM) OVCAR-3): 1 µM; IC50 values in several human cancer cell lines (in words) [6]: submicromolar to single micromolar
6 | Nc1cccc2cc3ccccc3cc12 [aminoanthracene] |  |  |  | AMES Result (Positive/Negative) ([5]; S9: Yes): Positive; AMES Result (Positive/Negative) [7]: Positive
